This note sets out measurements from ChEMBL document CHEMBL1221345, “Cytotoxic flavonoids from the leaves of Cryptocarya chinensis” (J Nat Prod, 2010).

*1 amine or outer side, *2 acyl side, *3 side chain or, on linkers, in order; H or OH if unused. Where a SMILES comes first, the peptide text is derived from it. Bridges are numbered along the chain shown (N, C = ends). Roman numbers before positions name the chains, in order. [ ]: non-standard residue; d: D form. Actinocin(1to9) = Cc1c2oc3c(C)ccc(C(=O)[*:2])c3nc-2c(C(=O)[*:1])c(N)c1=O; NMeV = CN[C@H](C(=O)O)C(C)C; Sar = CNCC(=O)O

Common to all, as to type: functional, cell-based
The subject of one assay is NCI-H460. Briefly: Cytotoxicity against human NCI-H460 cells after 72 hrs by MTS reduction assay. To be noted: NCI-H460, 72 h.
The test system of the next assay is SF-268. Briefly: Cytotoxicity against human SF268 cells after 72 hrs by MTS reduction assay. Conditions: SF-268, 72 h.
Another assay relates to MCF7. Briefly: Cytotoxicity against human MCF7 cells after 72 hrs by MTS reduction assay. Conditions: MCF7, 72 h. Background: Tetrazolium assays rely on reduction of a dye to a coloured formazan, in cell work by metabolically active cells.
The next assay concerns KB. Briefly: Cytotoxicity against human KB cells.

Usually IC50 stands for the concentration at which inhibition is half-maximal. A lower IC50 goes with higher potency. For `CC(C)=CCC/C(C)=C/CC/C(C)=C/CC/C=C(\C)CC/C=C(\C)CCC=C(C)C`, the IC50 in the assay with NCI-H460, in the assay on SF-268 and in the assay with MCF7 was above 50 µM in each case.

As to `O=C1C[C@@H]2C3=C(C=C[C@@H]2O1)O[C@@H](c1ccccc1)CC3=O` [CRYPTOCARYANONE A], the half-maximal inhibitory concentration (IC50) in the assay on KB came out at 2.5 µM; in the assay on NCI-H460, 4.3 µM; in the assay on SF-268, 5 µM; in the assay with MCF7, 5.1 µM.

In the case of `CO[C@H]1CC2=C(C(=O)C[C@@H](c3ccccc3)O2)[C@@H]2CC(=O)O[C@H]12` [7-O-METHYLCRYPTOCHINONE B], the 50% inhibitory concentration (IC50) in the assay with NCI-H460, in the assay on SF-268 and with MCF7 was above 50 µM in each case.

Turning to `CC1=C(C)C(=O)C(CC[C@](C)(O)CCC[C@H](C)CCC[C@H](C)CCCC(C)C)=C(C)C1=O`, the IC50 in the assay with NCI-H460 was 37.3 µM; with SF-268, above 50 µM; with MCF7, above 50 µM.

Take `COc1cc(O)c2c(=O)c(OC)c(-c3ccccc3)oc2c1OC`: the half-inhibitory concentration (IC50) in the assay with NCI-H460, with SF-268 and in the assay with MCF7 was above 50 µM in each case.

For the compound `COC(=O)C[C@H]1CC=CC(=O)/C1=C(O)/C=C/c1ccccc1` [INFECTOCARYONE], the half-maximal inhibitory concentration (IC50) in the assay on KB amounted to 1.7 µM; with NCI-H460, 11 µM; in the assay with SF-268, 3.7 µM; in the assay on MCF7 it was 24.3 µM.

For the compound `O=C1C[C@H]2C3=C(C[C@H](O)[C@H]2O1)O[C@H](c1ccccc1)CC3=O` [CRYPTOCHINONE B], the IC50 with NCI-H460, in the assay with SF-268 and with MCF7 was above 50 µM each time.

In the case of `COc1cc(C=O)ccc1O` [VANILLIN], the concentration for half-maximal inhibition (IC50) in the assay with NCI-H460, with SF-268 and in the assay with MCF7 was above 50 µM throughout.

As for `COc1cc2oc(-c3ccccc3)cc(=O)c2c(O)c1OC` [MOSLOFLAVONE], the half-maximal inhibitory concentration (IC50) with NCI-H460, with SF-268 and in the assay with MCF7 was above 50 µM in each case.

In the case of `COc1cc(O)c2c(=O)c(OC)c(-c3ccccc3)oc2c1`, the half-inhibitory concentration (IC50) in the assay with NCI-H460, in the assay with SF-268 and in the assay with MCF7 was above 50 µM throughout.

Consider `CO[C@@H]1CC2=C(C(=O)CC(c3ccccc3)O2)[C@H]2CC(=O)O[C@H]21` (stereo not given in full), for which the IC50 in the assay on NCI-H460, in the assay on SF-268 and in the assay on MCF7 was above 50 µM each time.

For the compound `CO[C@H]1CC2=C(C(=O)C[C@@H](c3ccccc3)O2)[C@H]2CC(=O)O[C@@H]12` [7-O-METHYLCRYPTOCHINONE A], the concentration for half-maximal inhibition (IC50) with NCI-H460, with SF-268 and in the assay on MCF7 was above 50 µM in each case.

As for `O=C1C[C@@H]2C3=C(C[C@H](O)[C@@H]2O1)O[C@H](c1ccccc1)CC3=O` [CRYPTOCHINONE A], the IC50 in the assay with NCI-H460, with SF-268 and with MCF7 was above 50 µM each time.

Take `COc1c(O)ccc(C(=O)/C=C/c2ccccc2)c1O` [LARREIN]: the IC50 in the assay with NCI-H460, in the assay on SF-268 and in the assay with MCF7 was above 50 µM each time.

`COc1cc(O)c2c(c1)O[C@H](c1ccccc1)CC2=O` [PINOSTROBIN]: the half-maximal inhibitory concentration (IC50) with NCI-H460, in the assay on SF-268 and with MCF7 was above 50 µM throughout.

Turning to `Cc1c2oc3c(C)ccc(C(=O)N[C@@H]4C(=O)N[C@H](C(C)C)C(=O)N5CCC[C@H]5C(=O)N(C)CC(=O)N(C)[C@@H](C(C)C)C(=O)O[C@@H]4C)c3nc-2c(C(=O)N[C@@H]2C(=O)N[C@H](C(C)C)C(=O)N3CCC[C@H]3C(=O)N(C)CC(=O)N(C)[C@@H](C(C)C)C(=O)O[C@@H]2C)c(N)c1=O` [DACTINOMYCIN] (I: T[dV]P[Sar][NMeV] / II: T[dV]P[Sar][NMeV]; ester I:1-I:C, II:1-II:C; linker I:N-II:N via Actinocin(1to9)), the IC50 turned out to be 0.008 µM in the assay with NCI-H460, 0.016 µM in the assay with SF-268 and 0.103 µM in the assay with MCF7.
